Where two headings read alike, the source gives them in different places. Values belong to the compound of their own block, whether it stands above or below them. Peptide text beside a SMILES is read from it. * marks the point of attachment. Cbz = O=C(OCc1ccccc1)*
How the values were obtained:
BRAT1 [1] = target: T1, BRAT1 (Homo sapiens, UniProt Q6PJG6); assay: BRAT1 protein level after 1d treatment (global proteomics, Western blot); assay type: cell-based; parameters: endogenous in cells; host or cells: HeLa, MCF-7, MDA-MB-231 (live cells or HeLa lysate); conditions: added for the final 4 hours of 1d treatment
T1 sequence (Q6PJG6 1-821): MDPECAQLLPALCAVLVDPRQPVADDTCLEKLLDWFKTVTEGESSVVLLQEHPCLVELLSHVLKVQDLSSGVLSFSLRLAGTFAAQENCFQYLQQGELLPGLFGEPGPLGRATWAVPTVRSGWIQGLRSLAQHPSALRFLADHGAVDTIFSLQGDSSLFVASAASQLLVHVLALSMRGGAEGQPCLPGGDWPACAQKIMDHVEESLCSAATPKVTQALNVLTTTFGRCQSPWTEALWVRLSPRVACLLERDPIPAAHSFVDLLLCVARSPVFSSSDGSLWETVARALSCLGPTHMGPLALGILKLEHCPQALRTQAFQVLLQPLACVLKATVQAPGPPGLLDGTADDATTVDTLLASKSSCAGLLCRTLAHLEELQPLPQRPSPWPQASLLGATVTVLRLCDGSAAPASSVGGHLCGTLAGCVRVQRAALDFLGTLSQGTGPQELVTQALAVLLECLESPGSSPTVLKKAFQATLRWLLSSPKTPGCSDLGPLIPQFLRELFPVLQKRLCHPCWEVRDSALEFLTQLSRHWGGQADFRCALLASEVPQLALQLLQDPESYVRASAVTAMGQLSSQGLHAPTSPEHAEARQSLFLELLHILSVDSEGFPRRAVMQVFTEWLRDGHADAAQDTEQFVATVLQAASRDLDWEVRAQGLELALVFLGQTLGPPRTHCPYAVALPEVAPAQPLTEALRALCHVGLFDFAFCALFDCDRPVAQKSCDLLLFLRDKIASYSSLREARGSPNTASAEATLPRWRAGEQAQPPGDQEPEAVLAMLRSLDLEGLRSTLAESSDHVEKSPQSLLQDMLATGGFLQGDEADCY

MCF-7 cells = assay: Cytotoxicity in MCF-7 cells, WST-1 assay; assay type: cell-based, human; conditions: for cytotoxicity / anticancer activity in MCF-7 cells, comparative statement / IC50 / EC50 values against MCF-7 cells, in words / EC50: 24 h compound treatment, WST-1; for IC50: read-out: IC50 value / antiproliferation activity in MCF-7 cells; for EC50: read-out: EC50, viability of MCF-7 cells
Source text: The absorbance at 420 nm and 630 nm was then acquired using a BioTek Synergy H1 microplate reader. Cell viability results were plotted in GraphPad Prism 7.

BRAT1 [2] = target: T1, BRAT1; assay: Competitive BRAT1 pulldown with iodoacetamide (binding reversibility); parameters: endogenous in cells; host or cells: HeLa (HeLa lysate); conditions: HeLa lysate, IAA 30 mM 1 h pre- or posttreatment, 37 10 μM
Procedure: To evaluate the binding reversibility, we performed a competitive BRAT1 pulldown assay with the irreversible cysteine-reactive probe iodoacetamide (IAA). HeLa lysate was treated with 37 (10 μM) for 1 h with either pre- or posttreatment with IAA (30 mM) for 1 h followed by enrichment and Western blot analysis as described above.

BRAT1 [3] = target: T1, BRAT1; assay: In situ competitive pulldown assay via Western blotting; assay type: cell-based; parameters: endogenous in cells; host or cells: HeLa, MCF-7, MDA-MB-231 (live cells or HeLa lysate)
BRAT1 [4] = target: T1, BRAT1; assay: In situ dose response via competitive pulldown assay with probe 37; assay type: cell-based
Procedure: HeLa (2.0e6) cells were seeded in 60 mm dishes. […] The lysates were prepared and quantified as described above. Lysates (2 mg/mL, 140 μL) was treated with 10 μM 37 (50× stock in DMSO) for one hour at r.t. and then subjected to click chemistry with biotin azide as described above for one hour at r.t. Proteins were precipitated, re-solubilized in 0.2% SDS in PBS, enriched with 50 μL streptavidin beads, and washed as described above. Proteins were eluted using 30 μL SDS-PAGE reducing loading buffer (4×), subjected to 10 min heat denaturation (95° C.), separated using a 11% SDS-PAGE gel, and visualized via Western blotting as described above. Images were quantified with ImageJ. EC50 and Kitz-Wilson binding constants were calculated using GraphPad Prism 7.

FLAG-BRAT1 = target: T2, FLAG-BRAT1 (Homo sapiens, UniProt Q6PJG6); assay: Thermal shift assay of FLAG-BRAT1 via Western blotting; assay type: binding; conditions: HEK-293T lysate, 30 μM, 34° C. to 61° C.
T2 construct: expressed in transfected cells; host or cells: HEK-293T, transient transfection, lysate
T2 sequence (Q6PJG6 1-821): T1 sequence (Q6PJG6 1-821)
Procedure: HEK-293T (8e6) cells were seeded in a 10 cm dish in DMEM without pen-strep. After incubating overnight, 24 μg of FLAG-BRAT1 pExp plasmid was incubated for 15 min at r.t. with 96 μL of PEI MAX™ 40K (Polysciences 24765-1) in final volume of 2 mL Opti-MEM (Gibco 11058021). The mixture was then carefully added to the cells. After 24 hours, the cells were carefully washed twice with PBS, and the lysate was prepared by sonication in PBS as described above.
The supernatant was carefully isolated. SDS-PAGE reducing loading buffer (4×) was added to the isolated supernatant, and proteins were transferred to a PVDF (0.2 μm) membrane using wet transfer with tris-glycine transfer buffer (20% methanol) for one hour at 350 mA. Membrane was blocked with 5% milk in tris-buffered saline with 0.1% Tween 20 (TBST) for 30-60 minutes at r.t. and then incubated with primary rabbit polyclonal BRAT1 antibody (Novus NB100-2256, 1:2000 in 5% milk in TBST) overnight shaking at 4° C. Membrane was washed three times for five min with TBST and incubated with anti-rabbit Alexa Fluor 647 (Jackson ImmunoResearch Inc., 1:500 in 5% milk in TBST) for one hour at r.t. Membrane was then washed 3× with TBST and visualized with an Azure Biosystems Sapphire Biomolecular Imager. […]

HeLa cells = assay: Global proteomics profiling using LC-MS/MS; assay type: cell-based, human; conditions: 3 μM, 24 h, among 3347 quantified proteins
[5] = tested on: HeLa, MCF-7 and MDA-MB-231 cells; assay: Transwell migration assay; assay type: cell-based, human; conditions: 1 μM, 24 hours, all cell lines
BRAT1 [6] = target: T1, BRAT1; assay: In situ competitive MS-based target identification; assay type: cell-based; conditions: MCF-7 cells, 30 μM 1d 4 hours, 10 μM 37
Procedure: MCF-7 (8e6) cells were seeded in 10 cm Petri dishes and incubated overnight. […] Lysate was prepared as described above. Lysate (2 mg/mL, 0.75 mL) was treated with 10 μM 37 (50× stock in DMSO) for one hour at r.t. and then subjected to click chemistry. […] (Click Chemistry Tools, 50 μM, 50× stock in DMSO), tris(2-carboxyethyl)phosphine hydrochloride (TCEP) (1 mM, Sigma-Aldrich C4706-2G, 50× fresh stock in water), tris[(1-benzyl-1H1,2,3-triazol-4-yl)methyl]amine (TBTA) (100 μM, Click Chemistry Tools, 16× stock in DMSO:tBuOH 1:4), and copper(II) sulfate (Sigma-Aldrich, 1 mM, 50× stock in water) were added to the proteome and left to react for one hour at r.t. […] Samples were analyzed by LC-MS/MS (see below) and the MS data was processed with MaxQuant (see below).
Peptides were resuspended in water with 0.1% formic acid (FA) and analyzed using EASY-nLC 1200 nano-UHPLC coupled to Q Exactive HF-X Quadrupole-Orbitrap mass spectrometer (Thermo Scientific). […]
The MS data was analyzed with MaxQuant9 (V1.6.1.0)^7 and searched against the human proteome (Uniprot) and a common list of contaminants (included in MaxQuant). […] The minimum peptide length was set to 6 amino acids and peptide re-quantification, label-free quantification (MaxLFQ) and “match between runs” were enabled. […]

Compound: CC(C)C[C@@H](C=O)NC(=O)[C@H](CC(C)C)NC(=O)[C@H](CC(C)C)NC(=O)OCc1ccccc1 [MG132] (Cbz-Leu-Leu-Leu-aldehyde)
BRAT1 protein levels with proteasome inhibitor (BRAT1 [1]): recovered BRAT1 protein levels

Compound: (−)-pyracurcasone [compound 33]
cytotoxicity / anticancer activity in MCF-7 cells, comparative statement (MCF-7 cells): slightly better antiproliferation activity
IC50 (MCF-7 cells): 8 µM

Compound: NC(=O)CI [IAA, iodoacetamide]
competition of BRAT1 enrichment by 37 (BRAT1 [2]): competed BRAT1 enrichment by 37

Compound: C=C(C)C1CCC(=C)C2C3=C(C[C@H](C)C3=O)C(=O)C(C)=C[C@@H]12 (single isomer, unassigned; (-)) [1b, (−)-Curcusone B]
EC50 values against MCF-7 cells, in words (MCF-7 cells): micromolar
cytotoxicity value of synthetic sample versus naturally isolated counterpart (MCF-7 cells; MCF-7 cells): virtually identical

competition of BRAT1 enrichment by 37 (BRAT1 [3]; HeLa and MDA-MB-231 cells): competed the enrichment of BRAT1
competition of BRAT1 enrichment by 37 (BRAT1 [3]; MCF-7 cells, 4 hours): competed
EC50 (BRAT1 [4]; in situ treatment of live HeLa cells, read-out: EC50, competition of BRAT1 enrichment by 37): 2.7 µM
concentration at 50% fractional occupancy (f occ. (50)) of BRAT1 (BRAT1 [4]; live HeLa cells, 4 h): 2.7 µM
thermal stability of FLAG-BRAT1 (FLAG-BRAT1): thermal destabilization
protein competed from probe 37 enrichment (BRAT1 [6]): best competed target was BRAT1
Compound: C=C(C)C1CCC(=C)C2C3=C(CC(C)(O)C3=O)C(=O)C(C)=CC12 (single isomer, unassigned; (-)) [1d, (−)-Curcusone D]
EC50 values against MCF-7 cells, in words (MCF-7 cells): micromolar
EC50 (MCF-7 cells; Homo sapiens, MCF7): 13.8 µM
number of down-regulated proteins (HeLa cells): 42
number of up-regulated proteins (HeLa cells): 36
reduction of cell migration [5]: ~4 fold

Compound: (−)-dimericursone A [2a]
cytotoxicity / anticancer activity in MCF-7 cells, comparative statement (MCF-7 cells): no toxicity
EC50 (MCF-7 cells): > 100 µM

Compound: C=C(C)[C@H]1CCC(=C)[C@@H]2[C@@H]1C=C(C)C(=O)[C@]21CC=C(C)C1=O [compound 3, (+)-Spirocurcasone]
IC50 (MCF-7 cells): 62.7 µM
